Measurements from ChEMBL document CHEMBL5291721, “A preclinical secondary pharmacology resource illuminates target-adverse drug reaction associations of marketed drugs” (Nat Commun, 2023).

Tests used:
[1] = target: T1, Androgen receptor (Rattus norvegicus, UniProt P15207); format: functional
T1 sequence (P15207 whole entry): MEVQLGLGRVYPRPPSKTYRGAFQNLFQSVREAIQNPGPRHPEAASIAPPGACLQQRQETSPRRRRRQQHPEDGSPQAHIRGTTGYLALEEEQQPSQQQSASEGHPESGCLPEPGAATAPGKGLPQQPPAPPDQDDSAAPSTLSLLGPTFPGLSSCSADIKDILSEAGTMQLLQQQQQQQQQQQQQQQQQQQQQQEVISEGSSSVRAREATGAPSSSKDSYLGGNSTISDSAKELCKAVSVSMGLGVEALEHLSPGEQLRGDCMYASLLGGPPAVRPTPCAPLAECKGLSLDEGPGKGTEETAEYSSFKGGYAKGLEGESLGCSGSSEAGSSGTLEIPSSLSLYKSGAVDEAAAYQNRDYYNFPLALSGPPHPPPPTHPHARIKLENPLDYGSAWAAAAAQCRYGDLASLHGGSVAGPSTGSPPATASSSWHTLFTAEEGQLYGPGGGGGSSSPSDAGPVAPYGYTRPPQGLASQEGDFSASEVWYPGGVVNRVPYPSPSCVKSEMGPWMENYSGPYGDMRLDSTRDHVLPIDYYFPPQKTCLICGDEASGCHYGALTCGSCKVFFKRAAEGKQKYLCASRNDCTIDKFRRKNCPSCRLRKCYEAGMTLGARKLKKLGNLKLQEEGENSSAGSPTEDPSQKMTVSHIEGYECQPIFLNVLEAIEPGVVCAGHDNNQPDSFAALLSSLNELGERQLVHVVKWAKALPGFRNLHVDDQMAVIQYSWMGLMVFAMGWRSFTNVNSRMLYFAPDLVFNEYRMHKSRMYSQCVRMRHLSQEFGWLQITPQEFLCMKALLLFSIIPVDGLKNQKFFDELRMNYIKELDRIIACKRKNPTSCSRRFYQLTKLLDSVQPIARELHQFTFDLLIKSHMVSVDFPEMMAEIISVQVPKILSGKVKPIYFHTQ

[2] = target: T1, Androgen receptor; format: functional; remark: listed apart in the source
[3] = target: 5-hydroxytryptamine receptor 2B (Homo sapiens, UniProt P41595)
[4] = target: 5-hydroxytryptamine receptor 2A (Homo sapiens, UniProt P28223)
[5] = target: Beta-3 adrenergic receptor (Homo sapiens, UniProt P13945)
[6] = target: T2, B1 bradykinin receptor (Homo sapiens, UniProt P46663)
T2 sequence (P46663 whole entry): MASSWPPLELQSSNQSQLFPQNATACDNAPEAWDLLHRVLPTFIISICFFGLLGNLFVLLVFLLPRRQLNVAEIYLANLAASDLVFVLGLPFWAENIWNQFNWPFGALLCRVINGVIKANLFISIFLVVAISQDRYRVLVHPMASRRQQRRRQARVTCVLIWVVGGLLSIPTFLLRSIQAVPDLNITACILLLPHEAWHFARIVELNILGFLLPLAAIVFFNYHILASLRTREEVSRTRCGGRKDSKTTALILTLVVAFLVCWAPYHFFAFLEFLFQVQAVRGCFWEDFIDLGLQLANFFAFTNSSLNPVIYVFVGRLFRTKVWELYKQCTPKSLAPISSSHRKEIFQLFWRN

[7] = target: T3, Corticotropin-releasing factor receptor 2 (Homo sapiens, UniProt Q13324)
T3 sequence (Q13324 whole entry): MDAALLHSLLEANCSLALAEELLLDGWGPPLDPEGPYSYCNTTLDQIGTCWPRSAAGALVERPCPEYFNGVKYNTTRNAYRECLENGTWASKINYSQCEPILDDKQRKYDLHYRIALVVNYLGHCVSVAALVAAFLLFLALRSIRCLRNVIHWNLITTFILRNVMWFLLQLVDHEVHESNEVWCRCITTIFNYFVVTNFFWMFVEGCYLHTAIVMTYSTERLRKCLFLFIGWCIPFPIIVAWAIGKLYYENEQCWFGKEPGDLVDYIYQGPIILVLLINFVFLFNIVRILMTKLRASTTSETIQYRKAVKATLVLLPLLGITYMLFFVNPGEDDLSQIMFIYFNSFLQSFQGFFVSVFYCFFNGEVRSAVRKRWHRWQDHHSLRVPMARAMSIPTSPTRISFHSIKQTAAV

[8] = target: T4, Gastric inhibitory polypeptide receptor (Homo sapiens, UniProt P48546)
T4 sequence (P48546 whole entry): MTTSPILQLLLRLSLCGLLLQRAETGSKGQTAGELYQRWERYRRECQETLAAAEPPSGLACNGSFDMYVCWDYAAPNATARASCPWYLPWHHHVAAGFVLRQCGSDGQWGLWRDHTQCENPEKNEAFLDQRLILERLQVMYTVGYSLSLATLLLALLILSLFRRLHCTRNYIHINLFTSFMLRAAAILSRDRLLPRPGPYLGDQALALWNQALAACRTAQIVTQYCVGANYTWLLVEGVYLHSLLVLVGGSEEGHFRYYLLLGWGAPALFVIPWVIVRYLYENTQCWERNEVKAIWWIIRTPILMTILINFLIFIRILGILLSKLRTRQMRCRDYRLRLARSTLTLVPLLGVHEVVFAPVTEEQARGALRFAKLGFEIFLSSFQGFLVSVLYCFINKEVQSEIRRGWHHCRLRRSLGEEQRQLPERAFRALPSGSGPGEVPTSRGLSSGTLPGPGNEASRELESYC
Note: assay procedure not described here.

Sequence of 5-hydroxytryptamine receptor 2B (P41595 whole entry): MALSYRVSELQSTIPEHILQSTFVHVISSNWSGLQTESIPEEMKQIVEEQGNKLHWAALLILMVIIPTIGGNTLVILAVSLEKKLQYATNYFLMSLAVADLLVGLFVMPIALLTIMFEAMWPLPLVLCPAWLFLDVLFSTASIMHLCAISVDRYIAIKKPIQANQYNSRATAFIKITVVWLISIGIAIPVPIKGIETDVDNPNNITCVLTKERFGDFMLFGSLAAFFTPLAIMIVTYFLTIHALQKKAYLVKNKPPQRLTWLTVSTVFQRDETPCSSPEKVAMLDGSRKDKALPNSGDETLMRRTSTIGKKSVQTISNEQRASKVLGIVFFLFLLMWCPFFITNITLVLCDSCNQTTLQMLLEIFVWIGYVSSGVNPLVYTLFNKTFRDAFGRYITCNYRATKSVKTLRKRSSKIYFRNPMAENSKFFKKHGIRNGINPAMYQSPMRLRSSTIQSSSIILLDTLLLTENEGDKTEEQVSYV
Sequence of 5-hydroxytryptamine receptor 2A (P28223 whole entry): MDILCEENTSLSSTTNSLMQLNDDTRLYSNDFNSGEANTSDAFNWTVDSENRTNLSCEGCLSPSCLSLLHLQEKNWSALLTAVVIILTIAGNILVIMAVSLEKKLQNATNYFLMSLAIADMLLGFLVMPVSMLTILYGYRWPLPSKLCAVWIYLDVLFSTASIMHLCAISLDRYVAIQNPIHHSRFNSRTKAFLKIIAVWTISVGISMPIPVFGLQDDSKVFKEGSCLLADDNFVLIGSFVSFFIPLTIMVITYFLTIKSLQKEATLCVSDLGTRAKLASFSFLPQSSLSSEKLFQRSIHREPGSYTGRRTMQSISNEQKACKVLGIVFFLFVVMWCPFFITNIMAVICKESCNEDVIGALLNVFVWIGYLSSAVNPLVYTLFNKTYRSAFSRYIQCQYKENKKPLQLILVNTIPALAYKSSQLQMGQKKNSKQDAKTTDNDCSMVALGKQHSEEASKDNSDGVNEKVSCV
Sequence of Beta-3 adrenergic receptor (P13945 whole entry): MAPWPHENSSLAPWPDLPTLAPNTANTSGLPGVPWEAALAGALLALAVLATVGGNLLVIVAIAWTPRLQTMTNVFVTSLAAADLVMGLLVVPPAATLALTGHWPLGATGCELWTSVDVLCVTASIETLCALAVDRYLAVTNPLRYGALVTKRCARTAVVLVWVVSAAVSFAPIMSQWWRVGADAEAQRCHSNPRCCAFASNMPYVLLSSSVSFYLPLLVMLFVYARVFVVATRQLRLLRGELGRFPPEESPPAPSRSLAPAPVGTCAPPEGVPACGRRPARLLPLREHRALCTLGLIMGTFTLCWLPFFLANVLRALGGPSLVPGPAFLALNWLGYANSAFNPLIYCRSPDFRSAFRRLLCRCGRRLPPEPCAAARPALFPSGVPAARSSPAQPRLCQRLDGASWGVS

AC50 [1] [µM] | AC50 [2] [µM] | AC50 [3] [µM] | AC50 [4] [µM] | AC50 [5] [µM] | AC50 [6] [µM] | AC50 [7] [µM] | AC50 [8] [µM] | SMILES
> 30 | > 30 | 0.012 | – | – | – | – | – | O=C1NCCN1CCN1CCC(c2cn(-c3ccc(F)cc3)c3ccc(Cl)cc23)CC1 [SERTINDOLE]
> 30 | > 30 | 0.0023 | 0.009 | – | – | – | – | CCOc1cc(N)c([N+](=O)[O-])cc1C(=O)NC1CCN(CC2CC=CCC2)CC1 (configuration not stated) [CINITAPRIDE]
> 30 | > 30 | > 10 | > 10 | > 30 | > 30 | > 30 | > 30 | CCCCCN(C)CCC(O)(P(=O)(O)O)P(=O)(O)O [IBANDRONIC ACID]
> 30 | > 30 | – | – | – | – | – | – | Cc1nc2ccc(CN(C)c3ccc(C(=O)N[C@@H](CCC(=O)O)C(=O)O)s3)cc2c(=O)[nH]1 [RALTITREXED]
